Measurements taken from the supplement of paper PMC10307832.

What was measured:
Test in all cases: relative viability (nuclei count vs DMSO), 5 days (fraction); higher = more cells survive
Metformin + Phenformin = compound: CN(C)C(=N)NC(=N)N [Metformin] + N=C(N)NC(=N)NCCc1ccccc1 [Phenformin] (partner 250 µM)
How it was run: (§1)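 Lung cancer cell lines were pin-tool dosed in 1536-well plates on the day after seeding, with either a lone drug or a fixed anchor-drug dose plus five library-drug doses (not always all listed) in √10 steps. Nuclei were counted on 4× images after 5 days. Relative viability is the ratio of treated-well to vehicle-well nuclei counts, with each value a median of duplicate plates.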

Apatinib + Trametinib = compound: N#CC1(c2ccc(NC(=O)c3cccnc3NCc3ccncc3)cc2)CCCC1 [Apatinib] + CC(=O)Nc1cccc(-n2c(=O)n(C3CC3)c(=O)c3c(Nc4ccc(I)cc4F)n(C)c(=O)c(C)c32)c1 [Trametinib] (partner 0.02 µM)
How it was run: as §1

Apatinib + Pictilisib = compound: N#CC1(c2ccc(NC(=O)c3cccnc3NCc3ccncc3)cc2)CCCC1 [Apatinib] + CS(=O)(=O)N1CCN(Cc2cc3nc(-c4cccc5[nH]ncc45)nc(N4CCOCC4)c3s2)CC1 [Pictilisib] (partner 1 µM)
How it was run: as §1

Apatinib + Vorinostat = compound: N#CC1(c2ccc(NC(=O)c3cccnc3NCc3ccncc3)cc2)CCCC1 [Apatinib] + O=C(CCCCCCC(=O)Nc1ccccc1)NO [Vorinostat] (partner 1 µM)
How it was run: as §1

Cell Line | relative viability (Metformin + Phenformin; first compound 10 µM) | relative viability (Metformin + Phenformin; first compound 31.62 µM) | relative viability (Metformin + Phenformin; first compound 100 µM) | relative viability (Metformin + Phenformin; first compound 316.23 µM) | relative viability (Metformin + Phenformin; first compound 1000 µM) | relative viability (Apatinib + Trametinib; first compound 0.08 µM) | relative viability (Apatinib + Trametinib; first compound 0.253 µM) | relative viability (Apatinib + Trametinib; first compound 0.8 µM) | relative viability (Apatinib + Trametinib; first compound 2.53 µM) | relative viability (Apatinib + Trametinib; first compound 8 µM) | relative viability (Apatinib + Pictilisib; first compound 0.08 µM) | relative viability (Apatinib + Pictilisib; first compound 0.253 µM) | relative viability (Apatinib + Pictilisib; first compound 0.8 µM) | relative viability (Apatinib + Pictilisib; first compound 2.53 µM) | relative viability (Apatinib + Pictilisib; first compound 8 µM) | relative viability (Apatinib + Vorinostat; first compound 0.08 µM) | relative viability (Apatinib + Vorinostat; first compound 0.253 µM) | relative viability (Apatinib + Vorinostat; first compound 0.8 µM) | relative viability (Apatinib + Vorinostat; first compound 2.53 µM) | relative viability (Apatinib + Vorinostat; first compound 8 µM)
NCI-H2126 | 0.533 | 0.591 | 0.544 | 0.483 | 0.515 | 0.605 | 0.562 | 0.569 | 0.538 | 0.415 | 0.52 | 0.398 | 0.473 | 0.505 | 0.479 | 0.86 | 0.717 | 0.671 | 0.768 | 0.755
NCI-H2170 | 0.369 | 0.434 | 0.444 | 0.441 | 0.469 | 0.942 | 0.881 | 0.857 | 0.822 | 0.737 | 0.329 | 0.301 | 0.304 | 0.306 | 0.315 | 0.881 | 0.751 | 0.792 | 0.718 | 0.775
NCI-H2228 | 0.27 | 0.213 | 0.372 | 0.275 | 0.322 | 0.405 | 0.568 | 0.646 | 0.416 | 0.549 | 0.338 | 0.417 | 0.451 | 0.355 | 0.539 | 0.535 | 0.703 | 0.538 | 0.55 | 0.639
NCI-H2347 | 0.384 | 0.363 |  | 0.422 | 0.404 | 0.294 | 0.228 | 0.249 | 0.291 | 0.268 | 0.51 | 0.673 | 0.748 | 0.552 | 0.596 | 0.655 | 0.569 | 0.619 | 0.542 | 0.557
NCI-H2405 | 0.379 | 0.362 | 0.362 | 0.393 | 0.326 | 0.594 | 0.625 | 0.599 | 0.527 | 0.44 | 0.343 | 0.458 | 0.439 | 0.402 | 0.35 | 1.21 | 1.15 | 1.06 | 0.951 | 1.03
NCI-H3122 | 0.307 | 0.303 | 0.322 | 0.287 | 0.288 | 0.251 | 0.234 | 0.247 | 0.181 | 0.176 | 0.679 | 0.538 | 0.684 | 0.731 | 0.701 | 0.995 | 0.968 | 1.07 | 0.734 | 0.895
PC-3 [JPC-3] | 0.437 | 0.46 | 0.462 | 0.45 | 0.478 |  | 0.786 | 0.553 | 0.646 | 0.654 | 0.781 | 0.741 | 0.594 | 0.605 | 0.683 |  | 0.756 | 0.733 | 0.533 | 0.799
PC-14 | 0.72 | 0.808 | 0.77 | 0.659 | 0.697 | 0.754 | 0.897 | 0.563 | 0.636 | 0.388 | 0.708 | 0.837 | 0.39 | 0.547 | 0.55 | 0.821 | 0.755 | 0.639 | 0.606 | 0.547
RERF-LC-KJ | 0.489 | 0.466 | 0.456 | 0.428 | 0.499 | 0.89 | 0.849 | 0.891 | 0.758 | 0.711 | 0.591 | 0.701 | 0.438 | 0.469 | 0.462 | 0.625 | 0.72 | 0.63 | 0.695 | 0.577
SK-LU-1 | 0.608 | 0.532 | 0.501 | 0.424 | 0.54 | 0.498 | 0.541 | 0.545 | 0.495 | 0.446 | 0.786 | 0.637 | 0.564 | 0.557 | 0.453 | 0.905 | 0.778 | 0.776 | 0.722 | 0.554
SK-MES-1 | 0.504 | 0.534 | 0.545 | 0.495 | 0.512 | 0.585 | 0.642 | 0.567 | 0.64 | 0.514 | 0.421 | 0.3 | 0.326 | 0.37 | 0.32 | 1.18 | 1.14 | 1.04 | 0.961 | 0.928
SW 1573 | 0.422 | 0.387 | 0.492 | 0.414 | 0.364 | 0.554 | 0.729 | 0.543 | 0.603 | 0.352 | 0.588 | 0.476 | 0.548 | 0.517 | 0.535 | 0.993 | 1.07 | 0.702 | 0.47 | 0.446
UMC-11 | 0.322 | 0.317 | 0.321 | 0.312 | 0.351 | 0.816 | 0.686 | 0.631 | 0.668 | 0.647 | 0.878 | 0.731 | 0.688 | 0.76 | 0.686 | 0.403 | 0.397 | 0.366 | 0.349 | 0.341
